Results: US20060263809A1, “Method for sensitive measure of low level apoptosis in cells” (The Rgents of The University of California, priority 2005, published 2006)
“Also recorded” adds a separate entry of the source. *1 amine or outer side, *2 acyl side, *3 side chain or, on linkers, in order; H or OH if unused. Where a SMILES comes first, the peptide text is derived from it. Bridges are numbered along the chain shown (N, C = ends). Roman numbers before positions name the chains, in order. [ ]: non-standard residue; d: D form. The star is where a group is joined. Actinocin(9to1) = Cc1c2oc3c(C)ccc(C(=O)[*:1])c3nc-2c(C(=O)[*:2])c(N)c1=O; NMeV = CN[C@H](C(=O)O)C(C)C; Cbz = O=C(OCc1ccccc1)*; Sar = CNCC(=O)O; CH2F = FC*

What was measured:
MEFs [1] = assay: Cell detachment scoring of Act-D-treated cultures with caspase inhibitors; type: cell-based, mouse; details: Act-D 40 nM, 3 days
Procedure: MEFs were given Act-D (40 nM in DMSO) or DMSO and either no inhibitor, zVAD (100 μM) or QVD (40 μM). After 3 days, the cells were photographed at 10× magnification.
(§1) Subconfluent cultures were treated with the caspase inhibitors zVAD or QVD together with actinomycin D (Act-D; 40 nM), which is known to induce cell death […]. Initially, the cultures were simply scored for cell detachment, a late event in the apoptotic response of adherent cells.

MEFs [2] = assay: Mitochondrial membrane potential (TMRE, flow cytometry); type: cell-based, mouse
Procedure: Mitochondrial Membrane Potential. 1×10^5 cells were treated with Act-D and QVD for 1, 2, or 3 days. QVD (and Act-D+QVD) was replaced each day. At the end of the experiment, media were collected and the cells were washed with PBS. The PBS was collected and combined with the media. Cells were trypsinized and resuspended in medium and PBS, as described above. The cells were spun for 5 min at 200 g and resuspended in fresh media containing TMRE (50 nM) and allowed to incubate at 37° C. for 30 minutes. Fluorescence was quantified in FL-2 using a FACscan and analyzed with Cellquest software (Waterhouse et al., 2001).

MEFs [3] = assay: Sub-G1 peak determination (flow cytometry); type: cell-based, mouse
Procedure: Cell Death Assays: Sub-G1 peak determination. 1×10^5 cells were treated with Act-D (40 nM in DMSO), DMSO (0.2%), QVD (40 μM), or QVD plus Act-D for 1, 2, or 3 days. QVD (and Act-D+QVD) was replaced each day. At the end of the experiment, media were collected and washed once with PBS. The PBS was also collected and then the cells were trypisized. Trypsinization was stopped by addition of the previously collected and pooled media and PBS. Cells were then collected by centrifugation at 200 g for 10 minutes, resuspended in 70% ethanol and stored at −20° C. overnight. The fixed cells were resuspended in 300 μl of PBS containing 10 μg/ml PI and 0.5 μg/ml RNase A and incubated at room temperature for 1 hour. Cells were quantified by flow cytometery using a FACscan (Becton Dickinson) in FL-3 and analyzed using Cellquest software (BD) (Cotter and Martin, 1996).

MEFs [4] = assay: PI exclusion assay (flow cytometry); type: cell-based, mouse
Procedure: PI exclusion assay. 1×10^5 cells were treated with Act-D (40 nM in DMSO), DMSO (0.2%), QVD (40 μM), or QVD plus Act-D for 1, 2, or 3 days. QVD (and Act-D+QVD) was replaced each day. At the end of the experiment, PI was added to a final concentration of 10 μg/ml. Following 10 min in the incubator, media were collected and the cells were washed with PBS. The PBS was also collected and combined with the media. The remaining cells were trypsinized and then combined with the mix of PBS and media. The cells were centrifuged at 200 g for 10 minutes and resuspended in 300 μl of PBS. The cells were then quantified and analyzed as above (Cotter and Martin, 1996).

MEFs [5] = assay: Caspase-independent cytochrome c release (CICR) assay, diffuse cytochrome c immunostaining; type: cell-based, mouse; details: for Diffuse cyt c (%): Act-D 40 nM, QVD 40 μM
Procedure: Caspase-independent cytochrome c release (CICR) assay. 3×10^4 cells were plated in each well of a Lab-Tek 4 well chamber slide (Nalge Nunc International, Naperville, Ill.) and treated with Act-D (40 nM), DMSO (0.2%), QVD (40 μM), or QVD plus Act-D for 1, 2, or 3 days. QVD (and Act-D+QVD) was replaced each day. At the end of the experiment, cells were washed twice with PBS and fixed with 4% formaldahyde in PBS for 5 minutes at room temperature. The cells were then washed twice with PBS and then incubated in blocking buffer (3% BSA and 0.1% Triton-X in PBS) for 30 min at room temperature. Cells were incubated for 1 hour at room temperature with anti-cytochrome c (Pharmingen, San Jose, Calif.) diluted 1:800 and 15 μg/ml Hoechst 33342 in blocking buffer. Cells were washed 5 times with PBS, and incubated with anti-mouse secondary antibody for 1 hour at room temperature. The cells were washed 5 times with PBS and then mounted in Prolong (Molecular Probes, Eugene, Oreg.).
Cells were scored as apoptotic if cytochrome c appeared diffuse and met the following criteria: 1) presence of diffuse cytochrome c in both the cytoplasm and nucleus; 2) lack of reticulated or punctate staining in the cytoplasm. Typically images were acquired using a 20× objective, and 500-800 cells were scored. For the exact number of cells counted in FIGS. 3A, 4, and 5, see Table 1 below. Nuclei were counted using images of uniformly illuminated Hoechst staining imported into Image J (URL: <http://rsb.info.nih.gov/ij/>).

HeLa cells = assay: Cytochrome c immunocytochemistry of HeLa cells treated with ActD and ZVAD-fmk; type: cell-based; details: 24 h after treatment
Procedure: FIGS. 6A and 61B are photographs of the cells after the apoptosis assay. FIG. 6A. Immunocytochemistry. HeLa cells were treated with vehicle (DMSO Control), actinomycin D (ActD) to induce apoptosis, or ActD plus the caspase inhibitor ZVAD-fmk. 24 h later, cells were immunostained for cytochrome c (green) and counterstained with DAPI (blue) to identify nuclei. In control cells, cytochrome c is evident as punctate mitochondrial staining. […] FIG. 6B. Quantification. The % cells with diffuse cytochrome c staining (x axis) were scored 24 h after treatment with vehicle (Contr), ActD or ActD plus ZVAD (ZV). Cytochrome c staining in the presence of ZVAD allows apoptotic cells to accumulate over 24 h.

WI-38 fibroblasts = assay: Cell detachment scoring of Act-D-treated cultures with caspase inhibitors; type: cell-based, human; details: for attachment of Act-D treated cells with caspase inhibitor: WI-38 cells
Procedure: as §1

HMECs = assay: as above; type: cell-based, human; details: for detachment of cells in the presence of Act-D and caspase inhibitor: Act-D treated
Procedure: as §1

HMEC = assay: Growth curves in media with QVD; type: cell-based, human; details: 0.1% DMSO + 40 μM QVD
Procedure: (§2) HCA-2 fibroblasts and HMEC were grown in normal growth media (DMEM, MEGM) or normal growth media supplemented with 0.1% DMSO (DMSO) or 0.1% DMSO+40 μM QVD (QVD). HCA-2 growth curves were averaged triplicates (HCA-2) or duplicates (HMEC) and error bars (HCA-2) are SD.

HCA-2 fibroblasts = assay: Growth curves in media with QVD; type: cell-based; details: 0.1% DMSO + 40 μM QVD
Procedure: as §2

[6] = cited from earlier work
[7] = MEFs treated with Act-D for one day

Cc1c2oc3c(C)ccc(C(=O)N[C@@H]4C(=O)N[C@H](C(C)C)C(=O)N5CCC[C@H]5C(=O)N(C)CC(=O)N(C)[C@@H](C(C)C)C(=O)O[C@@H]4C)c3nc-2c(C(=O)N[C@@H]2C(=O)N[C@H](C(C)C)C(=O)N3CCC[C@H]3C(=O)N(C)CC(=O)N(C)[C@@H](C(C)C)C(=O)O[C@@H]2C)c(N)c1=O [Act-D, actinomycin D] (I: T[dV]P[Sar][NMeV] / II: T[dV]P[Sar][NMeV]; ester I:1-I:C, II:1-II:C; linker I:N-II:N via Actinocin(9to1))
apoptotic morphology and detachment (MEFs [1]): adopt characteristic apoptotic morphology and detach from the culture dish | apoptosis detected by loss of ΔΨm (MEFs [2]; [7]): little or no apoptosis | time after addition at which manifestations of apoptosis were apparent (reduction in ΔΨm) (MEFs [2]; MEFs, Act-D): 1 to 2 days | apoptosis detected by subG1 peak determination (MEFs [3]; [7]): little or no apoptosis | time after addition at which manifestations of apoptosis were apparent (sub-G1 DNA peak) (MEFs [3]; MEFs, Act-D): 1 to 2 days | cells died by PI exclusion assay (MEFs [4]; MEFs treated with Act-D, after 3 days): 74% | time after addition at which manifestations of apoptosis were apparent (propidium iodide exclusion) (MEFs [4]; MEFs, Act-D): 1 to 2 days | cells apoptotic by CICR assay (MEFs [5]; MEFs treated with Act-D for one day, CICR assay (QVD present)): 13% | cells dead or dying by CICR assay (MEFs [5]; MEFs treated with Act-D, after 3 days, CICR assay (QVD present)): 96% | time at which Act-D begins killing cells by CICR assay (MEFs [5]; MEFs, CICR assay): ≤ 24 h | Diffuse cyt c (%) (MEFs [5]; MEFs, Day 1): 0.8% | Diffuse cyt c (%) (MEFs [5]; MEFs, Day 2): 13.4% | cells remaining on dish and cytochrome c staining (HeLa cells): fewer cells are present on the culture dish | apoptotic morphology and detachment (WI-38 fibroblasts; WI-38, Act-D 40 nM, 3 days): adopt characteristic apoptotic morphology and detach from the culture dish | apoptotic morphology and detachment (HMECs; Act-D 40 nM, 3 days): adopt characteristic apoptotic morphology and detach from the culture dish

CC(C)[C@H](NC(=O)c1ccc2ccccc2n1)C(=O)N[C@@H](CC(=O)O)C(=O)COc1c(F)cccc1F [QVD, Quinoline-Val-Asp-Ch2-O-Ph]
effect on cell growth (HMEC): does not inhibit growth | prevention of Act-D-induced cell detachment (MEFs [1]; QVD 40 μM): preserves adhesion; also recorded: prevented most of the cell detachment | effect on Act-D-induced reduction in ΔΨm (MEFs [2]; MEFs, Act-D, 40 μM QVD): substantially or completely reduced | effect on Act-D-induced sub-G1 DNA peak (MEFs [3]; MEFs, Act-D, 40 μM QVD): substantially or completely reduced | effect on Act-D-induced loss of propidium iodide exclusion (MEFs [4]; MEFs, Act-D, 40 μM QVD): substantially or completely reduced | effect on cell growth (HCA-2 fibroblasts): does not inhibit growth | dose with no toxicity / administered safely ([6]; animal, data sheet of distributor MP Biomedicals): 1 g/kg of body weight | dose reported as safely used ([6]; in vivo, Yang et al. 2004): 20 mg/kg of body weight | Diffuse cyt c (%) (MEFs [5]; MEFs, Day 1): 2.0% | Diffuse cyt c (%) (MEFs [5]; MEFs, Day 2): 2.3% | Diffuse cyt c (%) (MEFs [5]; MEFs, Day 3): 3.2% | attachment of Act-D treated cells with caspase inhibitor (WI-38 fibroblasts): remained equally well attached | detachment of cells in the presence of Act-D and caspase inhibitor (HMECs): a small fraction detached

COC(=O)C[C@H](NC(=O)[C@H](C)NC(=O)[C@@H](NC(=O)OCc1ccccc1)C(C)C)C(=O)CF [zVAD, benzyloxycarbonyl-Val-Ala-Asp-fluoromethylketone] (Cbz-Val-Ala-Asp(OMe)-CH2F)
prevention of Act-D-induced cell detachment (MEFs [1]; zVAD 100 μM): failed to prevent detachment | attachment of Act-D treated cells with caspase inhibitor (WI-38 fibroblasts): remained equally well attached | detachment of cells in the presence of Act-D and caspase inhibitor (HMECs): a larger fraction detached
